Measurements: US12655116B2, “Substituted isophthalic acid diamides” (Bayer Aktiengesellschaft, priority 2020, dated 2026)

Columns and labels:
[1] = test system: AMARE; assay: Post-emergence herbicidal action against AMARE; assay type: in vivo, Amaranthus retroflexus; settings: Amaranthus retroflexus, 504 h, visual assessment about 3 weeks after treatment, 100% = plants have died, 0% = like control plants
Procedure, shortened: (§1)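 Percent herbicidal action is rated by eye about 3 weeks after treatment against untreated controls, where 100% means dead plants and 0% means like controls. Plants in sandy loam are sprayed on green parts at the one-leaf stage with aqueous WP or EC preparations at 600 to 800 l/ha plus 0.2% wetting agent.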

[2] = test system: HORMU; assay: Post-emergence herbicidal action against HORMU; assay type: in vivo, Hordeum murinum; settings: Hordeum murinum, 504 h, dosage 80 g/ha
Procedure, shortened: as §1

[3] = test system: SETVI; assay: Pre-emergence herbicidal action against SETVI; assay type: in vivo, Setaria viridis; settings: Setaria viridis, 504 h; for pest or weed control at 320 g/ha: dosage 320 g/ha
Procedure, shortened: (§2)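 Seeds sown in sandy loam, soil-covered; compound sprayed on soil surface pre-emergence. Application: WP/EC, 600–800 l/ha, 0.2% wetting agent. Readout: visual % damage at 3 weeks.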

[4] = test system: ALOMY; assay: Pre-emergence herbicidal action against ALOMY; assay type: in vivo, Alopecurus myosuroides; settings: Alopecurus myosuroides, 504 h, pre-emergence; for pest or weed control at 80 g/ha: scored visually after 3 weeks vs untreated controls (100% = plants have died, 0% = like control plants); for pest or weed control at 320 g/ha: scored visually after 3 weeks, 100% = plants have died, 0% = like control plants
Procedure, shortened: as §2

[5] = test system: VERPE; assay: Pre-emergence herbicidal action against VERPE; assay type: in vivo, Veronica persica; settings: Veronica persica, 504 h; for pest or weed control at 80 g/ha: dosage 80 g/ha; for pest or weed control at 320 g/ha: dosage 320 g/ha
Procedure, shortened: as §2

[6] = test system: MATIN; assay: Post-emergence herbicidal action against MATIN; assay type: in vivo, Matricaria inodora; settings: Tripleurospermum inodorum, 504 h, dosage 80 g/ha
Procedure, shortened: as §1

[7] = test system: SETVI; assay: Post-emergence herbicidal action against SETVI; assay type: in vivo, Setaria viridis; settings: Setaria viridis, 504 h, dosage 80 g/ha
Procedure, shortened: as §1

[8] = test system: AVEFA; assay: Post-emergence herbicidal action against AVEFA; assay type: in vivo, Avena fatua; settings: Avena fatua, 504 h, 80 g/ha, visual assessment about 3 weeks after treatment, 100% = plants have died, 0% = like control plants
Procedure, shortened: as §1

[9] = test system: MATIN; assay: Pre-emergence herbicidal action against MATIN; assay type: in vivo, Matricaria inodora; settings: Tripleurospermum inodorum, 504 h; for pest or weed control at 80 g/ha: dosage 80 g/ha; for pest or weed control at 320 g/ha: dosage 320 g/ha
Procedure, shortened: as §2

[10] = test system: HORMU; assay: Pre-emergence herbicidal action against HORMU; assay type: in vivo, Hordeum murinum; settings: for pest or weed control at 80 g/ha / pest or weed control at 320 g/ha: Hordeum murinum, 504 h, pre-emergence
Procedure, shortened: as §2

[11] = test system: ABUTH; assay: Pre-emergence herbicidal action against ABUTH; assay type: in vivo, Abutilon theophrasti; settings: Abutilon theophrasti, 504 h; for pest or weed control at 80 g/ha: scored visually after 3 weeks vs untreated controls (100% = plants have died, 0% = like control plants); for pest or weed control at 320 g/ha: Dosage: 320 g/ha, scored visually after 3 weeks; for pest or weed control at 320 g/ha / pest or weed control at 20 g/ha: 100% = plants have died, 0% = like control plants; for pest or weed control at 20 g/ha: dosage 20 g/ha, scored visually after 3 weeks vs untreated controls, read-out: Pre-emergence action against ABUTH (herbicidal activity in percent)
Procedure, shortened: as §2

[12] = test system: ALOMY; assay: Post-emergence herbicidal action against ALOMY; assay type: in vivo, Alopecurus myosuroides; settings: Alopecurus myosuroides, 504 h, dosage 80 g/ha, visual assessment about 3 weeks after treatment vs untreated controls
Procedure, shortened: as §1

[13] = test system: AMARE; assay: Pre-emergence herbicidal action against AMARE; assay type: in vivo, Amaranthus retroflexus; settings: Amaranthus retroflexus, 504 h, 100% = plants have died, 0% = like control plants; for pest or weed control at 20 g/ha / pest or weed control at 80 g/ha: scored visually after 3 weeks vs untreated controls; for pest or weed control at 320 g/ha: scored visually after 3 weeks
Procedure, shortened: as §2

[14] = test system: STEME; assay: Post-emergence herbicidal action against STEME; assay type: in vivo, Stellaria media; settings: Stellaria media, 504 h
Procedure, shortened: as §1

[15] = test system: PHBPU; assay: Post-emergence herbicidal action against PHBPU; assay type: in vivo, Pharbitis purpurea; settings: Ipomoea purpurea, 504 h; for pest or weed control at 80 g/ha: dosage 80 g/ha
Procedure, shortened: as §1

[16] = test system: STEME; assay: Pre-emergence herbicidal action against STEME; assay type: in vivo, Stellaria media; settings: Stellaria media, 504 h; for pest or weed control at 80 g/ha: dosage 80 g/ha; for pest or weed control at 320 g/ha: dosage 320 g/ha
Procedure, shortened: as §2

[17] = test system: ECHCG; assay: Post-emergence herbicidal action against ECHCG; assay type: in vivo, Echinochloa crus-galli; settings: Echinochloa crus-galli, 504 h, dosage 80 g/ha
Procedure, shortened: as §1

[18] = test system: VIOTR; assay: Post-emergence herbicidal action against VIOTR; assay type: in vivo, Viola tricolor; settings: Viola tricolor, 504 h
Procedure, shortened: as §1

[19] = test system: AVEFA; assay: Pre-emergence herbicidal action against AVEFA; assay type: in vivo, Avena fatua; settings: Avena fatua, 504 h, pre-emergence
Procedure, shortened: as §2

[20] = test system: ECHCG; assay: Pre-emergence herbicidal action against ECHCG; assay type: in vivo, Echinochloa crus-galli; settings: Echinochloa crus-galli, 504 h
Procedure, shortened: as §2

[21] = test system: LOLRI; assay: Pre-emergence herbicidal action against LOLRI; assay type: in vivo, Lolium rigidum; settings: Lolium rigidum, 504 h
Procedure, shortened: as §2

[22] = scored visually after 3 weeks, 100% = plants have died, 0% = like control plants
[23] = 20 g/ha, scored visually after 3 weeks, 100% = plants have died, 0% = like control plants

## CCCn1nnnc1NC(=O)c1ccc(C(F)(F)F)c(C(N)=O)c1Cl [Example 3-338]
[1]
  pest or weed control at 20 g/ha: 90%
  pest or weed control at 80 g/ha: 100%
[2]
  pest or weed control at 80 g/ha: 100%
[3]
  pest or weed control at 320 g/ha: 100%
[4]
  pest or weed control at 80 g/ha: 80%
  pest or weed control at 320 g/ha: 100%
[5]
  pest or weed control at 80 g/ha: 90%
  pest or weed control at 320 g/ha: 100%
[6]
  pest or weed control at 80 g/ha: 80%
[7]
  pest or weed control at 80 g/ha: 90%
[8]
  pest or weed control at 80 g/ha: 100%
[9]
  pest or weed control at 80 g/ha: 90%
  pest or weed control at 320 g/ha: 100%
[10]
  pest or weed control at 80 g/ha: 80%
  pest or weed control at 320 g/ha: 100%
[11]
  pest or weed control at 80 g/ha: 100%
  pest or weed control at 320 g/ha: 100%
  pest or weed control at 20 g/ha: 90%
[12]
  pest or weed control at 80 g/ha: 100%
[13]
  pest or weed control at 20 g/ha: 80%
  pest or weed control at 80 g/ha: 100%
  pest or weed control at 320 g/ha: 100%
[14]
  pest or weed control at 20 g/ha: 100%
  pest or weed control at 80 g/ha: 100%
[14]; dosage 5 g/ha
  pest or weed control at 5 g/ha: 80%
[15]; dosage 20 g/ha
  pest or weed control at 20 g/ha: 80%
[15]
  pest or weed control at 80 g/ha: 90%
[16]
  pest or weed control at 80 g/ha: 90%
  pest or weed control at 320 g/ha: 100%
[17]
  pest or weed control at 80 g/ha: 80%
[18]; 20 g/ha
  pest or weed control at 20 g/ha: 90%
[18]
  pest or weed control at 80 g/ha: 100%
[19]
  pest or weed control at 80 g/ha: 90%
[19]; [22]
  pest or weed control at 320 g/ha: 100%
[20]
  pest or weed control at 320 g/ha: 100%

## CCn1nnnc1NC(=O)c1ccc(C(F)(F)F)c(C(=O)NC(C)=O)c1Cl [Example 2-337]
[1]
  pest or weed control at 20 g/ha: 100%
  pest or weed control at 80 g/ha: 100%
[3]; dosage 20 g/ha
  pest or weed control at 20 g/ha: 90%
[3]; dosage 80 g/ha
  pest or weed control at 80 g/ha: 100%
[3]
  pest or weed control at 320 g/ha: 100%
[4]
  pest or weed control at 80 g/ha: 90%
  pest or weed control at 320 g/ha: 100%
[5]; dosage 20 g/ha
  pest or weed control at 20 g/ha: 80%
[5]
  pest or weed control at 80 g/ha: 90%
  pest or weed control at 320 g/ha: 90%
[8]
  pest or weed control at 80 g/ha: 90%
[9]; dosage 20 g/ha
  pest or weed control at 20 g/ha: 80%
[9]
  pest or weed control at 80 g/ha: 100%
  pest or weed control at 320 g/ha: 100%
[10]; [23]
  Pre-emergence action against HORMU: 90%
[10]
  pest or weed control at 80 g/ha: 90%
  pest or weed control at 320 g/ha: 100%
[11]
  pest or weed control at 80 g/ha: 100%
  pest or weed control at 320 g/ha: 100%
  pest or weed control at 20 g/ha: 100%
[12]
  pest or weed control at 80 g/ha: 90%
[13]
  pest or weed control at 20 g/ha: 90%
  pest or weed control at 80 g/ha: 100%
  pest or weed control at 320 g/ha: 100%
[14]
  pest or weed control at 20 g/ha: 90%
  pest or weed control at 80 g/ha: 90%
[15]
  pest or weed control at 80 g/ha: 80%
[16]; dosage 20 g/ha
  pest or weed control at 20 g/ha: 90%
[16]
  pest or weed control at 80 g/ha: 90%
  pest or weed control at 320 g/ha: 100%
[17]
  pest or weed control at 80 g/ha: 90%
[18]
  pest or weed control at 80 g/ha: 90%
[19]
  pest or weed control at 80 g/ha: 100%
[19]; [23]
  pest or weed control at 20 g/ha: 90%
[19]; [22]
  pest or weed control at 320 g/ha: 100%
[21]; 80 g/ha
  pest or weed control at 80 g/ha: 80%
[21]; 320 g/ha
  pest or weed control at 320 g/ha: 90%
[20]; 20 g/ha
  pest or weed control at 20 g/ha: 80%
[20]; 80 g/ha
  pest or weed control at 80 g/ha: 100%
[20]
  pest or weed control at 320 g/ha: 100%
